Our source for the Activity, Kd and inhibition values is ChEMBL document CHEMBL5120852, “New Aβ(1-42) ligands from anti-amyloid antibodies: Design, synthesis, and structural interaction” (Eur J Med Chem, 2022).

Assay [1] has as its system SH-SY5Y. The assay is described as follows: Neuroprotective activity against amyloid beta (1 to 42)-induced cytotoxicity in human SH-SY5Y cells assessed as increase in cell viability at 0.000001 to 10 mM preincubated with compound for 48 hrs followed by stimulation with amyloid beta(1 to 42) and measured after 18 hrs by MTT assay. It is filed as functional, cell-based. The settings on record: dose lower 1 nM, dose upper 10.0 mM. (Tetrazolium dyes change colour on reduction, which living cells bring about.)

For assay [2], the target named is T1, Amyloid-beta precursor protein (Homo sapiens, UniProt P05067). The assay is described as follows: Disaggregation of 15N-labelled amyloid beta (1 to 42) (unknown origin) expressed in Escherichia coli BL21 (DE3)-pLysS cells in pH 7.4 buffer assessed as absence of bundle of fibrils at 1:20 protein to compound molar ratio incubated for 192 hrs by AFM microscopic analysis.

Assay [3] deals with T1, Amyloid-beta precursor protein. The assay can be described thus: Disaggregation of 15N-labelled amyloid beta (1 to 42) (unknown origin) expressed in Escherichia coli BL21 (DE3)-pLysS cells in pH 7.4 buffer assessed as absence of mature fibrils at 1:20 protein to compound molar ratio incubated for 192 hrs by AFM microscopic analysis.
The target is the same in assay [4]. The assay is described as follows: Binding affinity to 5R to 22E residues of 15N-labelled amyloid beta (1 to 42) (unknown origin) expressed in Escherichia coli BL21 (DE3)-pLysS cells assessed as chemical shift perturbation by measuring dissociation constant by Chemical shift mapping NMR analysis.
Assay [5] has the same target. The assay can be described thus: Inhibition of 15N-labelled amyloid beta (1 to 42) (unknown origin) expressed in Escherichia coli BL21 (DE3)-pLysS cells fibrillization assessed as absence of observable number of protofibrils at 1:20 protein to compound molar ratio incubated for 192 hrs by AFM microscopic analysis.
For assay [6] the target is unchanged. The assay can be described thus: Inhibition of 15N-labelled amyloid beta (1 to 42) (unknown origin) expressed in Escherichia coli BL21 (DE3)-pLysS cells fibrillization assessed as decrease in indicator of fibrillization (DoF) by AFM microscopic analysis.
Assay [7] shares this target. The assay is described as follows: Inhibition of 15N-labelled amyloid beta (1 to 42) (unknown origin) expressed in Escherichia coli BL21 (DE3)-pLysS cells fibrillization assessed as absence of mature fibrils at 1:20 protein to compound molar ratio incubated for 192 hrs by AFM microscopic analysis.

The source made the active and inactive calls. The rule behind the calls is not given here. Where a SMILES comes first, the peptide text is derived from it. [ ]: non-standard residue; d: D form. Aib = CC(C)(N)C(=O)O

T1 sequence (P05067 whole entry): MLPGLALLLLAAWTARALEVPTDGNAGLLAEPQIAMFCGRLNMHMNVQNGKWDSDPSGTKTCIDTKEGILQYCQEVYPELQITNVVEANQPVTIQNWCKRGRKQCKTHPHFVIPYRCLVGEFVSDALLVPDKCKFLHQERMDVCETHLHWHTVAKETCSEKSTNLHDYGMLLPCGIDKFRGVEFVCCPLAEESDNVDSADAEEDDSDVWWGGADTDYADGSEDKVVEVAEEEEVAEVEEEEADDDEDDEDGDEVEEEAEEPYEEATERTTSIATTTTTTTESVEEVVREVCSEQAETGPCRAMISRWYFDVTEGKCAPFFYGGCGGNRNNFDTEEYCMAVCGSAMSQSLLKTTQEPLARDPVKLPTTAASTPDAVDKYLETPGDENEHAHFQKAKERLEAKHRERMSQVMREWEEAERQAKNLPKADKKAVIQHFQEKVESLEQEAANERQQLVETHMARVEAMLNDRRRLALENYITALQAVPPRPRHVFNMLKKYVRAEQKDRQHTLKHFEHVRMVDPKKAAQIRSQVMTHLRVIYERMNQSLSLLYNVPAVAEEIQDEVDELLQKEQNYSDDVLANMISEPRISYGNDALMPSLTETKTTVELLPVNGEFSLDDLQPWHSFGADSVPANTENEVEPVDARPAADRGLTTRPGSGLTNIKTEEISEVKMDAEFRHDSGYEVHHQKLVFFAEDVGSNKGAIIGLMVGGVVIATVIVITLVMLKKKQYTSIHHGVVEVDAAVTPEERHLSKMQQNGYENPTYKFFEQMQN

Consider H-SYSTPGK-OH, for which the outcome in assay [1], in assay [2] and in assay [3] was Active. Further, the Kd (in general, a measure of binding affinity in units of concentration) in assay [4] came out at 0.65 mM. In addition, the inhibition entry in assay [5] and in assay [7] was “Active” throughout. Besides, in assay [6], the Activity came out at 0.06.

Regarding `CC(C)(NC(=O)[C@@H](N)Cc1c[nH]c2ccccc12)C(=O)N[C@@H](Cc1c[nH]cn1)C(=O)O` (H-Trp-[Aib]-His-OH), the result in assay [1], in assay [2] and in assay [3] was Active. Moreover, the dissociation constant Kd in assay [4] amounted to 5.74 mM. In addition, the inhibition result in assay [5] and in assay [7] was “Active” each time. Moreover, the Activity in assay [6] was 0.03.
